According to the NIST ThermoML archive (doi:10.1016/j.jct.2005.04.019):

What was measured:
[1] = xn = mol fraction of the nth substance listed; details: 298.15 K, 101 kPa, Liquid; for speed of sound: Quartz crystal interferometer (Mittal Enterprises, India)
[2] = 298.15 K, 101.33 kPa, Liquid; for viscosity: Capillary tube (Ostwald / Ubbelohde) method; for speed of sound: Quartz crystal interferometer (Mittal Enterprises, India); for mass density: Vibrating tube method

CC1CCCCC1 [methylcyclohexane] + CCO
[1]
Details | mass density [kg/m3] | speed of sound [m/s] | viscosity [mPa·s]
x1 = 0.0499 | 782.02 | – | 1.034
x1 = 0.1024 | 779.14 | – | 0.987
x1 = 0.1037 | – | 1146 | –
x1 = 0.1492 | 776.99 | – | 0.949
x1 = 0.1893 | – | 1151 | –
x1 = 0.194 | 775.25 | – | 0.915
x1 = 0.2467 | 773.53 | – | 0.886
x1 = 0.313 | 771.77 | – | 0.853
x1 = 0.3143 | – | 1157 | –
x1 = 0.3363 | 771.24 | – | 0.841
x1 = 0.4007 | – | 1162 | –
x1 = 0.4015 | 769.94 | – | 0.81
x1 = 0.4438 | 769.21 | – | 0.79
x1 = 0.4752 | 768.72 | – | 0.776
x1 = 0.4788 | – | 1166 | –
x1 = 0.5844 | 767.23 | – | 0.732
x1 = 0.5884 | – | 1173 | –
x1 = 0.6993 | – | 1181 | –
x1 = 0.7002 | 765.95 | – | 0.692
x1 = 0.8147 | 765.03 | – | 0.672
x1 = 0.8209 | – | 1191 | –
x1 = 0.8864 | 764.74 | – | 0.667
x1 = 0.8943 | – | 1196 | –
x1 = 0.9473 | – | 1202 | –

CCC(C)O (stereo unspecified) [butan-2-ol]
[2]
Details | mass density [kg/m3] | speed of sound [m/s] | viscosity [mPa·s]
– | 802.54 | 1213 | 2.907

CC1CCCCC1 [methylcyclohexane] + CC(C)O
[1]
Details | mass density [kg/m3] | speed of sound [m/s] | viscosity [mPa·s]
x1 = 0.0648 | 778.57 | – | 1.771
x1 = 0.1102 | 776.98 | – | 1.589
x1 = 0.1123 | – | 1143 | –
x1 = 0.1475 | 775.78 | – | 1.462
x1 = 0.2041 | 774.1 | – | 1.315
x1 = 0.2053 | – | 1143 | –
x1 = 0.2422 | 773.07 | – | 1.232
x1 = 0.303 | 771.57 | – | 1.113
x1 = 0.3034 | – | 1144 | –
x1 = 0.3511 | 770.5 | – | 1.034
x1 = 0.3937 | – | 1148 | –
x1 = 0.3947 | 769.61 | – | 0.975
x1 = 0.4603 | 768.4 | – | 0.896
x1 = 0.4954 | 767.81 | – | 0.86
x1 = 0.5031 | – | 1155 | –
x1 = 0.5589 | 766.86 | – | 0.801
x1 = 0.578 | 766.6 | – | 0.789
x1 = 0.5788 | – | 1160 | –
x1 = 0.6707 | 765.53 | – | 0.734
x1 = 0.6715 | – | 1168 | –
x1 = 0.7466 | – | 1176 | –
x1 = 0.7715 | – | 1178 | –
x1 = 0.7727 | 764.75 | – | 0.695
x1 = 0.8299 | – | 1184 | –
x1 = 0.8993 | – | 1194 | –
x1 = 0.9011 | 764.45 | – | 0.679
x1 = 0.9472 | – | 1201 | –

CCCCCC(C)O (stereo unspecified) [2-heptanol] + CC1CCCCC1
[1]
Details | mass density [kg/m3] | speed of sound [m/s] | viscosity [mPa·s]
x2 = 0.0998 | – | 1278 | –
x2 = 0.103 | 808.34 | – | 3.935
x2 = 0.1479 | – | 1272 | –
x2 = 0.1524 | 805.84 | – | 3.415
x2 = 0.206 | – | 1263 | –
x2 = 0.2071 | 803.04 | – | 2.945
x2 = 0.2564 | 800.53 | – | 2.587
x2 = 0.3047 | 798.08 | – | 2.287
x2 = 0.3053 | – | 1250 | –
x2 = 0.3558 | 795.52 | – | 2.013
x2 = 0.3966 | – | 1239 | –
x2 = 0.4019 | 793.23 | – | 1.817
x2 = 0.4469 | 791.02 | – | 1.649
x2 = 0.4951 | 788.67 | – | 1.49
x2 = 0.5005 | – | 1229 | –
x2 = 0.5969 | 783.72 | – | 1.225
x2 = 0.5973 | – | 1223 | –
x2 = 0.7017 | – | 1223 | –
x2 = 0.703 | 778.57 | – | 1.017
x2 = 0.7974 | – | 1222 | –
x2 = 0.7979 | 773.96 | – | 0.879
x2 = 0.8883 | 769.71 | – | 0.773
x2 = 0.9017 | – | 1219 | –
x2 = 0.9514 | – | 1215 | –

CCCC(C)O (stereo unspecified) [pentan-2-ol] + CC1CCCCC1
[1]
Details | mass density [kg/m3] | speed of sound [m/s] | viscosity [mPa·s]
x2 = 0.067 | 801.75 | – | 2.764
x2 = 0.1011 | 799.88 | – | 2.501
x2 = 0.1026 | – | 1227 | –
x2 = 0.1561 | 796.91 | – | 2.148
x2 = 0.2018 | – | 1219 | –
x2 = 0.2088 | 794.12 | – | 1.863
x2 = 0.2653 | 791.21 | – | 1.618
x2 = 0.2991 | 789.53 | – | 1.488
x2 = 0.3077 | – | 1211 | –
x2 = 0.3581 | 786.7 | – | 1.317
x2 = 0.3974 | 784.89 | – | 1.219
x2 = 0.3999 | – | 1206 | –
x2 = 0.4481 | 782.64 | – | 1.113
x2 = 0.4885 | 780.93 | – | 1.044
x2 = 0.4976 | – | 1203 | –
x2 = 0.5997 | – | 1202 | –
x2 = 0.6007 | 776.49 | – | 0.901
x2 = 0.6973 | 773.05 | – | 0.819
x2 = 0.6984 | – | 1204 | –
x2 = 0.8001 | 769.78 | – | 0.75
x2 = 0.8007 | – | 1207 | –
x2 = 0.8981 | 767.12 | – | 0.704
x2 = 0.8998 | – | 1211 | –
x2 = 0.9488 | – | 1211 | –

CCO [ethanol]
[2]
Details | mass density [kg/m3] | speed of sound [m/s] | viscosity [mPa·s]
– | 785.32 | 1145 | 1.093

CCCCCCC(C)O (stereo unspecified) [2-octanol]
[2]
Details | mass density [kg/m3] | viscosity [mPa·s]
– | 816.13 | 6.568

CCCCC(C)O (stereo unspecified) [2-hexanol]
[2]
Details | mass density [kg/m3] | viscosity [mPa·s]
– | 810.25 | 4.204

CCCCCC(C)O (stereo unspecified) [2-heptanol]
[2]
Details | mass density [kg/m3] | viscosity [mPa·s]
– | 813.33 | 5.346

CCCCC(C)O (stereo unspecified) [2-hexanol] + CC1CCCCC1
[1]
Details | mass density [kg/m3] | speed of sound [m/s] | viscosity [mPa·s]
x2 = 0.1002 | – | 1252 | –
x2 = 0.1017 | 804.9 | – | 3.089
x2 = 0.1514 | 802.31 | – | 2.701
x2 = 0.2026 | 799.67 | – | 2.344
x2 = 0.2041 | – | 1239 | –
x2 = 0.2473 | 797.41 | – | 2.082
x2 = 0.2837 | – | 1231 | –
x2 = 0.2995 | 794.85 | – | 1.836
x2 = 0.3508 | 792.24 | – | 1.632
x2 = 0.3521 | – | 1225 | –
x2 = 0.3989 | – | 1222 | –
x2 = 0.4019 | 789.75 | – | 1.468
x2 = 0.452 | 787.34 | – | 1.345
x2 = 0.4948 | – | 1216 | –
x2 = 0.4972 | 785.2 | – | 1.227
x2 = 0.5955 | 780.68 | – | 1.052
x2 = 0.5978 | – | 1212 | –
x2 = 0.6904 | – | 1209 | –
x2 = 0.6956 | 776.28 | – | 0.917
x2 = 0.808 | – | 1208 | –
x2 = 0.8089 | 771.63 | – | 0.798
x2 = 0.8967 | – | 1214 | –
x2 = 0.8987 | 768.24 | – | 0.729
x2 = 0.9509 | – | 1215 | –

CC1CCCCC1 [methylcyclohexane] + CCC(C)O
[1]
Details | mass density [kg/m3] | speed of sound [m/s] | viscosity [mPa·s]
x1 = 0.0988 | – | 1207 | –
x1 = 0.1026 | 796.47 | – | 2.207
x1 = 0.1536 | 793.6 | – | 1.933
x1 = 0.2015 | 791.01 | 1199 | 1.72
x1 = 0.2544 | 788.28 | – | 1.509
x1 = 0.3058 | – | 1193 | –
x1 = 0.3307 | 784.56 | – | 1.281
x1 = 0.3604 | 783.2 | – | 1.216
x1 = 0.3993 | – | 1190 | –
x1 = 0.4086 | 781.07 | – | 1.107
x1 = 0.4679 | 778.61 | – | 1.002
x1 = 0.5007 | – | 1189 | –
x1 = 0.5012 | 777.3 | – | 0.953
x1 = 0.5872 | 774.19 | – | 0.856
x1 = 0.6001 | – | 1189 | –
x1 = 0.6926 | 770.91 | – | 0.77
x1 = 0.7 | – | 1192 | –
x1 = 0.7737 | – | 1196 | –
x1 = 0.7844 | 768.54 | – | 0.729
x1 = 0.8916 | 766.35 | – | 0.696
x1 = 0.8996 | – | 1203 | –
x1 = 0.9489 | – | 1206 | –

CCCC(C)O (stereo unspecified) [pentan-2-ol]
[2]
Details | mass density [kg/m3] | speed of sound [m/s] | viscosity [mPa·s]
– | 805.4 | 1235 | 3.421

CCCCCCC(C)O (stereo unspecified) [2-octanol] + CC1CCCCC1
[1]
Details | mass density [kg/m3] | speed of sound [m/s] | viscosity [mPa·s]
x2 = 0.1001 | – | 1292 | –
x2 = 0.1006 | 811.52 | – | 4.941
x2 = 0.1185 | 810.68 | – | 4.692
x2 = 0.1672 | 808.39 | – | 4.097
x2 = 0.2032 | – | 1282 | –
x2 = 0.2104 | 806.32 | – | 3.651
x2 = 0.2489 | 804.45 | – | 3.308
x2 = 0.2536 | 804.22 | – | 3.263
x2 = 0.3003 | – | 1269 | –
x2 = 0.3171 | 801.09 | – | 2.769
x2 = 0.347 | 799.59 | – | 2.58
x2 = 0.3979 | 797.02 | – | 2.268
x2 = 0.4001 | – | 1258 | –
x2 = 0.4503 | 794.35 | – | 2.022
x2 = 0.5043 | – | 1247 | –
x2 = 0.5168 | 790.9 | – | 1.72
x2 = 0.5766 | 787.77 | – | 1.5
x2 = 0.5969 | 786.69 | – | 1.443
x2 = 0.5973 | – | 1239 | –
x2 = 0.684 | 782.06 | – | 1.199
x2 = 0.6889 | – | 1231 | –
x2 = 0.8058 | 775.5 | – | 0.943
x2 = 0.8109 | – | 1222 | –
x2 = 0.9002 | 770.39 | – | 0.793
x2 = 0.9008 | – | 1219 | –
x2 = 0.9466 | – | 1216 | –

CC1CCCCC1 [methylcyclohexane]
[2]
Details | mass density [kg/m3] | speed of sound [m/s] | viscosity [mPa·s]
– | 764.99 | 1209 | 0.683

CC(C)O [propan-2-ol]
[2]
Details | mass density [kg/m3] | speed of sound [m/s] | viscosity [mPa·s]
– | 781.06 | 1142 | 2.098
